What all share (assay type): cell-based, rat
The subject of assay [1] is VEGF-C. Put plainly: Whole cell ELISA for VEGF-C. Here is the method:
(§1) ELISA was performed using whole cells to quantify relative levels of kinase activity. NBT-II cells were grown until confluence in 75 cm^2 flasks. Each flask was washed with 20 ml PBS and treated with 3 ml trypsin-EDTA at 37° C. for 3-5 minutes, until cells detached. Cells were centrifuged for 3 minutes at 195×g. The supernatant was aspirated, and the cells were resuspended in 10 ml media. The cell density was measured using an electronic cell counter, and the suspension was diluted to 50,000 cells/ml. 100 mm dishes were supplemented with 10 ml cell suspension per dish. After a 24 hour incubation, the media was aspirated, the dishes washed with serum free media, and the cells supplemented with media containing 0.1% FBS. After a 24 hour incubation, dishes were treated with PBS, 10 μg/ml heparin or 10 μg/ml DS DT. […] Cells were incubated for 30 minutes (for Erk1, Erk2, phosphor-Erk1/2, Mek1, Mek2, phospho-Mek1/2, Akt1/2 and phospho-Akt1/2/3) or 24 hours (for VEGF, VEGF-C and VEGF-D). Media were aspirated and cells were homogenized per manufacture instructions. Total protein concentration was determined by Bradford assay. […] The reaction was quenched with 3 M sulfuric acid, and the plates were analyzed using a UV plate reader at 450 nm. Data were quantified by comparing to a standardized curve with varying concentrations of protein from untreated cells.
For orientation: An ELISA detects its analyte on a solid surface through an enzyme-linked reagent.

In assay [2] the test system is NBT-II cells. Put plainly: Proliferation assay, whole cell number by electronic cell counter. The following applies: for percent reduction in whole cell number ± standard deviation / proliferative effect of ligand in the absence of GAGs / reduction in whole cell number: no GAG; for proliferative effect of ligand in the absence of GAGs: ligand 10 ng/ml; for reduction in whole cell number: ligand alone; for reduction in whole cell number / reduction in cell number in the presence of FGF7: compared to untreated cells; for reduction in cell number in the presence of FGF7: ligand plus FGF7, no GAG. On the set-up: reduction in whole cell number / reduction in cell number in the presence of FGF7: concentration or dose not given beside the values. Here is the method:
NBT-II cells were grown until confluence in 75 cm^2 flasks. Each flask was washed with 20 ml PBS and treated with 3 ml trypsin-EDTA at 37° C. for ˜15 minutes until cells completely detached. Cells were centrifuged for 3 minutes at 195×g. The supernatant was aspirated, and the cells were resuspended in 10 ml media. Cell density was measured using an electronic cell counter, and the suspension was diluted to 50,000 cells/ml. The suspension was plated 1 ml/well into 24-well tissue culture plates. After a 24 hour incubation in a 5% CO2, 37° C. humidified incubator, the media was aspirated, the wells were washed with serum free media, and the cells were supplemented with media containing 0.1% FBS and incubated for 24 hours. Cells were sequentially treated with antibodies, GAGs and growth factors as appropriate. Sodium chlorate was added at 50 mM [30]. Antibodies to VEGFR2 or VEGFR3 were added to yield a final dilution of 1:100. All GAGs were initially added over a range of concentrations from 1 ng/ml to 100 μg/ml. Heparin, UDS and DS DT were subsequently added at 1 μg/ml unless otherwise noted. FGF1, FGF2, FGF7 and VEGF were added at 10 ng/ml unless otherwise noted. Cells were then incubated for 72 hours. Wells were then washed twice with PBS and treated with 0.5 ml trypsin-EDTA/well and incubated for 10 minutes at 37° C. Whole cell number was determined using an electronic cell counter.

Assay [3] has as its system VEGF-D. As to the kind of experiment: Whole cell ELISA for VEGF-D. The following applies: FGF2 in the presence of PBS, heparin or DS DT, 24 hours. Here is the method:
as §1

Assay [4] concerns VEGFR3. As to the kind of experiment: Whole cell ELISA for VEGFR3. The note with it: addition of ligand, 24 hours. The procedure: (§2) ELISA was performed using whole cells to quantify relative levels of kinase activity. NBT-II cells were grown until confluence in 75 cm^2 flasks. Each flask was washed with 20 ml PBS and treated with 3 ml trypsin-EDTA at 37° C. for 3-5 minutes, until cells detached. Cells were centrifuged for 3 minutes at 195×g. The supernatant was aspirated, and the cells were resuspended in 10 ml media. The cell density was measured using an electronic cell counter, and the suspension was diluted to 50,000 cells/ml. 100 mm dishes were supplemented with 10 ml cell suspension per dish. After a 24 hour incubation, the media was aspirated, the dishes washed with serum free media, and the cells supplemented with media containing 0.1% FBS. After a 24 hour incubation, dishes were treated with PBS, 10 μg/ml heparin or 10 μg/ml DS DT. Subsequently, cells were treated with 10 ng/ml FGF7, 10 ng/ml VEGF or both. Cells were incubated for 30 minutes (for Erk1, Erk2, phosphor-Erk1/2, Mek1, Mek2, phospho-Mek1/2, Akt1/2 and phospho-Akt1/2/3) or 24 hours (for VEGF, VEGF-C and VEGF-D). […] Total protein concentration was determined by Bradford assay. […] The reaction was quenched with 3 M sulfuric acid, and the plates were analyzed using a UV plate reader at 450 nm. Data were quantified by comparing to a standardized curve with varying concentrations of protein from untreated cells.

Assay [5] has as its system phospho-Akt1/2/3 (Thr 308). Put plainly: Whole cell ELISA for phospho-Akt1/2/3 (Thr 308). The note with it: ligand in the presence of PBS (no GAG). Here is the method:
as §2

The mark [6] stands for this setting: FGF7: ligand (10 ng/ml) or PBS plus FGF7 at 10 ng/ml.

Turning to “FGF2: Recombinant human FGF2, gift from Scios”, the “production of VEGF-C” value in assay [1] (FGF2 in the presence of PBS, heparin or DS DT, 24 hours) is recorded as “did not alter”. Further, the “percent reduction in whole cell number ± standard deviation” value is listed as 30.4 ± 8.7% in assay [2] (setting [6]) and 18.3 ± 5.0% in assay [2] (PBS: ligand at 10 ng/ml alone). In addition, the “proliferative effect of ligand in the absence of GAGs” value (from here on “proliferative effect of ligand”) in assay [2] is listed as “reduced whole cell number”. Further, the “production of VEGF-D” value in assay [3] is “did not alter”.
Take FGF1: Recombinant FGF1, gift from Amgen: the “percent reduction in whole cell number ± standard deviation” value in assay [2] (setting [6]) came to 18.0 ± 2.6%; in assay [2] (PBS: ligand at 10 ng/ml alone), 5.4 ± 8.3%. The “proliferative effect of ligand” value in assay [2] is “did not induce significant proliferative effects”.
VEGF: the VEGFR3 production result in assay [4] is listed as “not”. In addition, in assay [1] (ligand over 24 hours, regardless of GAG used), the VEGF-C levels entry is on record as “increased”. In assay [2] (setting [6]), the “percent reduction in whole cell number ± standard deviation” value is 30.1 ± 7.0%. Moreover, the “percent reduction in whole cell number ± standard deviation” value in assay [2] (PBS: ligand at 10 ng/ml alone) amounted to 19.8 ± 4.5%. In addition, in assay [2], the “proliferative effect of ligand” value is “reduced whole cell number”, the “reduction in whole cell number” value was found to be 19.8±4.5% and the “reduction in cell number in the presence of FGF7” value (“reduction in cell number” for short) is reported as 30.1±7.0%.

B1: FGF7: Recombinant FGF7 from Sigma (protein, UniProt P21781 32-194, looked up)
Fibroblast growth factor 7: CNDMTPEQMATNVNCSSPERHTRSYDYMEGGDIRVRRLFCRTQWYLRIDKRGKVKGTQEMKNNYNIMEIRTVAVGIVAIKGVESEFYLAMNKEGKLYAKKECNEDCNFKELILENHYNTYASAKWTHNGGEMFVALNQKGIPVRGKKTKKEQKTAHFLPMAIT
Turning to B1, in assay [4], the VEGFR3 production entry was “increase”. Also, in assay [5], the “reduction of phosphorylation of Akt1/2/3 (Thr 308)” value was around 20%. The “percent reduction in whole cell number ± standard deviation” value in assay [2] (setting [6]) was determined as 14.1 ± 2.5%. In addition, in assay [2] (FGF7 alone, cells treated with 50 mM sodium chlorate), the “increase in whole cell number” value worked out at 28.4±11.8%. In addition, the “concentration eliciting maximal effect on cell growth” value in assay [2] (dose response, no sodium chlorate, effect constant through 100 ng/ml) was 5 ng/mL. For the same molecule, the “concentration at which maximal proliferative effect is achieved” value in assay [2] (in the presence of 50 mM sodium chlorate) was determined as 10 ng/mL. Besides, the “reduction in whole cell number” value in assay [2] amounted to 14.1±2.5%.

B2: VEGF-C: vascular endothelial growth factor C, ligand of VEGFR2 and VEGFR3 (protein, UniProt P49767 112-227, looked up)
Vascular endothelial growth …: AHYNTEILKSIDNEWRKTQCMPREVCIDVGKEFGVATNTFFKPPCVSVYRCGGCCNSEGLQCMNTSTSYLSKTLFEITVPLSQGPKPVTISFANHTSCRCMSKLDVYRQVHSIIRR
For B2, in assay [2], the “reduction in whole cell number” value is 13.4±8.7% and the “reduction in cell number” value came to 5.9±5.0%.

B3: VEGF-D: vascular endothelial growth factor D, ligand of VEGFR2 and VEGFR3 (protein, UniProt O43915 89-205, looked up)
Vascular endothelial growth …: FAATFYDIETLKVIDEEWQRTQCSPRETCVEVASELGKSTNTFFKPPCVNVFRCGGCCNEESLICMNTSTSYISKQLFEISVPLTSVPELVPVKVANHTGCKCLPTAPRHPYSIIRR
On to B3, for which, in assay [2], the “reduction in whole cell number” value turned out to be 16.2±10.8% and the “reduction in cell number” value amounted to 34.5±1.5%.

Values taken from patent US20090105463A1, “Compositions of and Methods of Using Oversulfated Glycosaminoglycans” (Massachusetts Institute of Technology, priority 2005, published 2009).
